Experimental data from patent publication US5902794A (priority 1997, dated 1999).

Key:
[1] = test system: breast and colon cancer cells; assay: effect on cell morphology; format: cell-based, human
Text: The photographs were taken on Day 4, ×160.
Furthermore, the synergistic growth inhibitory effect of C-6 and C-8 analogue combinations was also reflected in the change in the cell morphology.

[2] = test system: LS-174T colon cancer cells; assay: cell cycle analysis, LS-174T; format: cell-based, human; conditions: 8-Cl 10 μM, 3 days, two separate experiments
Procedure: (§1) DNA histograms were generated on FACS II by using the DNA intercalating dye propidium iodide as described by Braylan et al. (Cytometry 2: 337-343, 1982). The percentage of cells in each cycle phase was calculated by using a PDP-11/34 computer and software as described by Neckers et al. (Mol. Cell. Biol. 6: 4244-4250, 1986).
Breast (MCF-7, MDA-MB-231) and colon (LS-174T) cancer cells in
log phase (untreated control) and 3 days after treatment with
(5 μM) were analyzed for DNA content by flow cytometric analysis

[3] = test system: breast and colon cancer cell lines; assay: cell cycle progression of breast and colon cancer cell lines; format: cell-based, human; conditions: vs untreated control cells
Procedure: as §1
A determination was made whether the reduced cell proliferation observed in the cancer cell lines after treatment with the compounds of the present invention is due to a specific block in one phase of the cell cycle.

[4] = test system: R^I cAMP receptor protein (MDA-MB-231); assay: photoaffinity labelling of R^I cAMP receptor protein, MDA-MB-231; format: cell-based, human; conditions: 10 microM, 3 days; control 1.0
Procedure: (§2) M is marker proteins of known molecular weight.
(§3) The incubations were carried out at 23° C. for 60 minutes in 96-well immunoplates. The reaction mixtures were then irradiated for 30 seconds at 254 nm, placing a Mineralite UVS-11 hand lamp directly onto the plate. The samples were mixed with 25 microliters of 3× sample buffer (3% SDS, 15% beta-mercaptoethanol, 30 mM Tris, 30% glycerol, 1% bromophenol blue saturated solution), boiled for 3 minutes, and centrifuged at 700×g for five minutes. The samples containing 50-100 micrograms of protein were subjected to 0.05% SDS-12% PAGE. The gels were fixed, dried, and exposed to X-ray films overnight. The protein concentrations were determined by the method of Lowry et al., (J. Biol. Chem. 193: 265-275, 1951) with bovine serum albumin as standard.
(§4) The levels of the receptor proteins are expressed relative to the R^I level in the untreated control cells of MDA-MB-231 and LS-174T, which are each set equal to 1.0 O.D.; the scale was expanded to differentiate the lower intensity bands.

[5] = test system: R^II cAMP receptor protein (LS-174T); assay: photoaffinity labelling of R^II cAMP receptor protein, LS-174T; format: cell-based, human; conditions: 10 microM, 3 days; relative to control R^I
Procedure: as §2, §3, §4

[6] = test system: MDA-MB-231; assay: growth of MDA-MB-231 cells; format: cell-based; conditions: Homo sapiens, MDA-MB-231, 72 h; 10 microM, 3 days
Procedure: as §2
(§5) All breast cancer cell lines were grown in IMEM supplemented with 10% fetal bovine serum, 20 mM HEPES, penicillin-streptomycin, and extra glutamine. Colon carcinoma cell lines were grown in EMEM supplemented with 10% FBS, EMEM, NEAA, HEPES 20 mM, extra glutamine, and penicillin-streptomycin. The cells were grown at 37° C. in humidified incubators in an atmosphere of 5% CO2.
(§6) For cell growth experiments, 2-3×10^5 cells/60 mm dish were seeded, and 24 hours later (Day 0), the medium was removed, and fresh medium and the additives were added then and every 48 hours thereafter The compounds of the present invention were added using 100× concentrated stock solutions. At desired times, cell counts in duplicate were performed on a Coulter counter after harvesting the cells with gentle trypsinization.

[7] = test system: LS-174T; assay: growth of LS-174T cells; format: cell-based; conditions: Homo sapiens, LS174T, 72 h; 10 microM, 3 days
Procedure: as §2, §5, §6

[8] = test system: R^I and R^II cAMP receptor proteins in breast (MDA-MB-231) and colon (LS-174T) cancer cells; assay: R^I and R^II cAMP receptor protein levels in breast and colon cancer lines (FIG. 6); format: cell-based, human
Procedure: as §2, §3

[9] = test system: DMBA-1; assay: growth of transplantable DMBA-1 rat mammary carcinoma; format: in vivo; conditions: pellet with 10 mg cAMP analogue, day 7
Procedure: DMBA-1, a variant of primary hormonedependent DMBA tumor,
hormoneindependent and transplantable.
8Cl-cAMP and DBcAMP were given as a 20mg pellet consisting of 10 mg of […]

[10] = test system: DMBA-induced mammary carcinomas; assay: in vivo growth of DMBA-induced mammary carcinomas in rats; design: species or system rat
Procedure: […] |DMBA-induced mammary carcinomas in rats […] | 10 mg. cholesterol), was implanted on day 0 and day 14.

[11] = test system: HL-60; assay: growth inhibition of HL-60; format: cell-based, human
[12] = test system: HL-60 cells; assay: differentiation markers (surface antigens) in HL-60 cells; format: cell-based, human; conditions: three days
[13] = test system: R^I cAMP receptor protein (Molt-4); assay: R^I cAMP receptor protein in Molt-4 leukemic cells; format: cell-based, human; conditions: 5 micromol/L, three days
Text: M marker proteins of known molecular weight. […] The resulting supernatants were used as cell lysates. […] ND=nondetectable.

[14] = test system: R^II; conditions: cited from earlier work
[15] = test system: R^I receptor; conditions: cited from earlier work

Nc1ncnc2c1nc(Cl)n2[C@@H]1O[C@@H]2COP(=O)(O)O[C@H]2[C@H]1O [8-Cl-cAMP]
morphological change ([1]; 1 microM alone, four days): did not induce a change in the cell morphology | morphological change ([1]; 50 microM, four to five days): characteristic morphological change | % Cell population in G1 [2]: 63,53% | % Cell population in G2 M [2]: 22,25% | % Cell population in S [2]: 15,22% | activity at 10 µM ([2]; Homo sapiens, LS174T, 72 h, read-out: % Growth): 30.3% | fractions of cells in G1, S and G2/M phases, in words [3]: not appreciably different | R^I relative level [4]: 0.25 ± 0.03 | R^II relative level [5]: 0.25 ± 0.02 | activity at 10 µM [6]: 45% | activity at 10 µM [7]: 30% | increase in the ratio of R^II to R^I ([8]; densitometry): two- to three-fold increase | 48,000 R^I receptor protein, in words ([8]; three days, 10 microM): concomitant decrease | 52,000 MW (R^II) receptor protein, in words ([8]; three days, 10 microM): increased appreciably | Change in mean tumor volume [9]: 1.60 cm^3 | tumor growth, in words ([10]; 10 mg pellet implanted twice every two weeks): completely stopped tumor growth | tumor regression within 30 days ([10]; within 30 days): ~100% | growth inhibition (footnote) ([11]; 20 μmol/L): Seventy percent growth inhibition | IC50 ([11]; Homo sapiens, HL-60): 100 µM | markers of immature progenitor cells (My7, My9), in words [12]: decrease in markers related to the immature progenitor cells | monocyte-specific surface antigens (MO2, OKM5), in words [12]: marked increase in the expression | R^I receptor protein, in words [13]: markedly decreased | site selectivity of binding, R^II [14]: selectively binds to site 1 | site selectivity of binding, R^I [15]: binds to site 2
